The supplement of paper PMC11061612

How the values were obtained:
[1] = tested on: OC-314 (Ovarian Carcinoma); assay: Bliss excess, mean over the matrix (fraction); higher = more synergy
Summary of the method: (§1)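 Bliss excess equals the observed combination effect minus the expected value EA + EB − EA·EB, where EA and EB are the effects of each agent alone. Combination Emax is the second-highest inhibition within the matrix. Inhibition was scaled from CellTiter-Glo 2.0 luminescence, with 0 set by vehicle wells and 1 by blank wells, after 72 hours of two-drug dosing of cells plated in 1536-well plates.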

[2] = tested on: HO-1-u-1 (Oral Cavity Carcinoma); assay: as above
Summary of the method: as §1

[3] = tested on: LU-139 (Small Cell Lung Carcinoma); assay: as above
Summary of the method: as §1

[4] = tested on: OVCAR-8 (Ovarian Carcinoma); assay: as above
Summary of the method: as §1

[5] = tested on: Mewo (Melanoma); assay: combination Emax (second highest fraction inhibited in the dose matrix, 72 h); higher = more inhibition; extreme values may be limits of the assay
Summary of the method: as §1

[6] = tested on: HARA (Squamous Cell Lung Carcinoma); assay: as above
Summary of the method: as §1

[7] = tested on: LoVo (Colorectal Carcinoma); assay: as above
Summary of the method: as §1

[8] = tested on: RKO (Colorectal Carcinoma); assay: as above
Summary of the method: as §1

[9] = tested on: CAL-51 (Breast Carcinoma); assay: as above
Summary of the method: as §1

[10] = tested on: OC-314 (Ovarian Carcinoma); assay: as above
Summary of the method: as §1

[11] = tested on: TE-4 (Esophageal Squamous Cell Carcinoma); assay: as above
Summary of the method: as §1

[12] = tested on: NCI-H747 (Colorectal Carcinoma); assay: as above
Summary of the method: as §1

[13] = tested on: HMV-II (Melanoma); assay: as above
Summary of the method: as §1

[14] = tested on: PCI-30 (Head and Neck Carcinoma); assay: as above
Summary of the method: as §1

[15] = tested on: MHH-PREB-1 (B-Cell Non-Hodgkin's Lymphoma); assay: as above
Summary of the method: as §1

[16] = tested on: OVCAR-8 (Ovarian Carcinoma); assay: as above
Summary of the method: as §1

[17] = tested on: SW1116 (Colorectal Carcinoma); assay: as above
Summary of the method: as §1

[18] = tested on: 8305C (Thyroid Gland Carcinoma); assay: as above
Summary of the method: as §1

[19] = tested on: NCI-H69 (Small Cell Lung Carcinoma); assay: as above
Summary of the method: as §1

[20] = tested on: COLO-829 (Melanoma); assay: as above
Summary of the method: as §1

| Compound | Bliss excess [1] | Bliss excess [2] | Bliss excess [3] | Bliss excess [4] | combination Emax [5] | combination Emax [6] | combination Emax [7] | combination Emax [8] | combination Emax [9] | combination Emax [10] | combination Emax [11] | combination Emax [12] | combination Emax [13] | combination Emax [14] | combination Emax [15] | combination Emax [16] | combination Emax [17] | combination Emax [18] | combination Emax [19] | combination Emax [20] |
| --- | --- | --- | --- | --- | --- | --- | --- | --- | --- | --- | --- | --- | --- | --- | --- | --- | --- | --- | --- | --- |
| COc1nnc2ccc(N3CCC(c4ccc(OCCN5CCN(C)C(=O)[C@H]5C)cc4)CC3)nn12 [AZD5153] + CC1(C)CCC(CN2CCN(c3ccc(C(=O)NS(=O)(=O)c4ccc(NCC5CCOCC5)c([N+](=O)[O-])c4)c(Oc4cnc5[nH]ccc5c4)c3)CC2)=C(c2ccc(Cl)cc2)C1 [Venetoclax] (first compound max 1 µM, 7x7, partner max 1 µM) | -0.0149 | -0.0352 | 0.0391 | 0.0035 | 0.563 | 0.654 | 0.464 | 0.757 | 0.673 | 0.814 | 0.27 | 0.702 | 0.524 | 0.344 | 0.481 | 0.661 | 0.353 | 0.524 | 0.636 | 0.226 |
| CC1(C)CCC(CN2CCN(c3ccc(C(=O)NS(=O)(=O)c4ccc(NCC5CCOCC5)c([N+](=O)[O-])c4)c(Oc4cnc5[nH]ccc5c4)c3)CC2)=C(c2ccc(Cl)cc2)C1 [Venetoclax] + CCN(CCO)CCCOc1ccc2c(Nc3cc(CC(=O)Nc4cccc(F)c4)[nH]n3)ncnc2c1 [AZD2811] (first compound max 1 µM, 7x7, partner max 1 µM) | -0.0071 | -0.0297 | 0.0596 | 0.0431 | 0.434 | 0.714 | 0.197 | 0.27 | 0.349 | 0.419 | 0.191 | 0.246 | 0.263 | 0.229 | 0.187 | 0.298 | 0.202 | 0.354 | 0.824 | 0.127 |
| Cc1c2c(nn1C)CSCc1cc(n(C)n1)CSc1cc(c3ccccc3c1)OCCCc1c(C(=O)O)n(C)c3c-2c(Cl)ccc13 [AZD5991] + C[C@@H]1COCCN1C2=NC(=NC(=C2)C3(CC3)[S@](=N)(=O)C)C4=C5C=CNC5=NC=C4 [AZD6738] (first compound max 1 µM, 7x7, partner max 10 µM) | 0.0197 | -0.0074 | 0.0214 | 0.001 | 0.59 | 0.776 | 0.889 | 0.85 | 0.899 | 0.832 | 0.773 | 0.322 | 0.424 | 0.603 | 0.729 | 0.783 | 0.281 | 0.593 | 0.335 | 0.532 |
| CC1(C)CCC(CN2CCN(c3ccc(C(=O)NS(=O)(=O)c4ccc(NCC5CCOCC5)c([N+](=O)[O-])c4)c(Oc4cnc5[nH]ccc5c4)c3)CC2)=C(c2ccc(Cl)cc2)C1 [Venetoclax] + COc1cc(Nc2ncc3c(n2)-c2ccc(Cl)cc2C(c2c(F)cccc2OC)=NC3)ccc1C(=O)O [Alisertib] (first compound max 1 µM, 7x7, partner max 10 µM) | 0.0244 | 0.0246 | 0.149 | 0.0079 | 0.416 | 0.787 | 0.48 | 0.487 | 0.574 | 0.504 | 0.194 | 0.419 | 0.363 | 0.218 | 0.199 | 0.487 | 0.341 | 0.627 | 0.837 | 0.252 |
| CN(CCO)CC[C@H](CSc1ccccc1)Nc1ccc(S(=O)(=O)NC(=O)c2ccc(N3CCC([C@@H](O)c4ccccc4-c4ccc(Cl)cc4)CC3)cc2)cc1S(=O)(=O)C(F)(F)F [AZD4320] + Cc1cc2ncnn2cc1Nc1ncc2c(n1)n(C1CCOCC1)c(=O)n2C [AZD7648] (first compound max 1 µM, 7x7, partner max 10 µM) | -0.0394 | -0.0172 | 0.0151 | -0.049 | 0.194 | 0.244 | 0.565 | 0.21 | 0.193 | 0.22 | 0.173 | 0.387 | 0.18 | 0.178 | 0.119 | 0.14 | 0.117 | 0.699 | 0.882 | 0.0921 |
| CC(=O)Nc1cccc(-n2c(=O)n(C3CC3)c(=O)c3c(Nc4ccc(I)cc4F)n(C)c(=O)c(C)c32)c1 [Trametinib] + Cc1nc(-c2cn3c(n2)-c2ccc(-c4cnn(C(C)(C)C(N)=O)c4)cc2OCC3)n(C(C)C)n1 [Taselisib] (first compound max 1 µM, 7x7, partner max 10 µM) | 0.066 | 0.0754 | -0.0203 | 0.121 | 0.692 | 0.818 | 0.708 | 0.956 | 0.886 | 0.707 | 1 | 0.952 | 0.926 | 0.627 | 0.271 | 0.594 | 0.866 | 0.945 | 0.688 | 0.942 |
| CN(CCO)CC[C@H](CSc1ccccc1)Nc1ccc(S(=O)(=O)NC(=O)c2ccc(N3CCC([C@@H](O)c4ccccc4-c4ccc(Cl)cc4)CC3)cc2)cc1S(=O)(=O)C(F)(F)F [AZD4320] + CN(C)CCCOc1ccc(-c2ccc3ncc4c(c3c2)n(C2CCOCC2)c(=O)n4C)cn1 [AZD0156] (first compound max 1 µM, 7x7, partner max 1 µM) | -0.0231 | 0.0032 | -0.0164 | -0.0434 | 0.147 | 0.187 | 0.287 | 0.122 | 0.16 | 0.165 | 0.0906 | 0.311 | 0.157 | 0.158 | 0.205 | 0.212 | 0.191 | 0.559 | 0.86 | 0.0619 |
| NC1(C(=O)N[C@@H](CCO)c2ccc(Cl)cc2)CCN(c2ncnc3[nH]ccc23)CC1 [Capivasertib] + C[C@@H]1COCCN1C2=NC(=NC(=C2)C3(CC3)[S@](=N)(=O)C)C4=C5C=CNC5=NC=C4 [AZD6738] (first compound max 10 µM, 7x7, partner max 10 µM) | -0.024 | -0.0167 | -0.0083 | -0.0485 | 0.557 | 0.868 | 0.801 | 0.938 | 0.936 | 0.793 | 0.818 | 0.626 | 0.465 | 0.482 | 0.749 | 0.776 | 0.227 | 0.683 | 0.671 | 0.563 |
| Cc1cc2ncnn2cc1Nc1ncc2c(n1)n(C1CCOCC1)c(=O)n2C [AZD7648] + CCN(CCO)CCCOc1ccc2c(Nc3cc(CC(=O)Nc4cccc(F)c4)[nH]n3)ncnc2c1 [AZD2811] (first compound max 10 µM, 7x7, partner max 1 µM) | 0.0565 | 0.0258 | 0.0273 | 0.0473 | 0.259 | 0.364 | 0.529 | 0.409 | 0.446 | 0.477 | 0.137 | 0.306 | 0.37 | 0.318 | 0.343 | 0.311 | 0.249 | 0.451 | 0.743 | 0.196 |
| CCc1c2c(nc3ccc(O)cc13)-c1cc3c(c(=O)n1C2)COC(=O)[C@]3(O)CC [SN-38] + CN(C)CCCOc1ccc(-c2ccc3ncc4c(c3c2)n(C2CCOCC2)c(=O)n4C)cn1 [AZD0156] (first compound max 0.3 µM, 7x7, partner max 1 µM) | 0.0872 | 0.0393 | -0.118 | 0.0058 | 0.248 | 0.768 | 0.727 | 0.91 | 0.728 | 1 | 0.402 | 0.408 | 0.587 | 0.692 | 0.701 | 0.849 | 0.199 | 0.572 | 0.738 | 0.497 |
| C[C@@H]1COCCN1c1cc(C2([S@](C)(=N)=O)CC2)nc(-c2ccnc3[nH]ccc23)n1 [AZD6738] + O=C(c1cc(Cc2n[nH]c(=O)c3ccccc23)ccc1F)N1CCN(C(=O)C2CC2)CC1 [Olaparib] (first compound max 10 µM, 7x7, partner max 10 µM) | 0.0247 | 0.0528 | 0.0115 | 0.0495 | 0.548 | 0.778 | 0.772 | 0.845 | 0.926 | 0.872 | 0.527 | 0.356 | 0.374 | 0.538 | 0.679 | 0.935 | 0.262 | 0.99 | 0.585 | 0.194 |
| CC1(C)CCC(CN2CCN(c3ccc(C(=O)NS(=O)(=O)c4ccc(NCC5CCOCC5)c([N+](=O)[O-])c4)c(Oc4cnc5[nH]ccc5c4)c3)CC2)=C(c2ccc(Cl)cc2)C1 [Venetoclax] + C[C@@H](Nc1cc(F)cc(F)c1)c1cc(C(=O)N(C)C)cc2c(=O)cc(N3CCOCC3)oc12 [AZD8186] (first compound max 1 µM, 7x7, partner max 3 µM) | -0.05 | -0.0183 | 0.0371 | -0.0162 | 0.434 | 0.607 | 0.494 | 0.113 | 0.0234 | 0.242 | 0.0248 | 0.344 | 0.263 | 0.19 | 0.21 | 0.139 | 0.0998 | 0.441 | 0.697 | 0.243 |
